Converted amounts (≈) assume the structure as drawn. The source made the active and inactive calls. The calls are words filed in the database; no cut-off is given here.
Legend:
[1] = system: SNU-16; assay: Antiproliferative activity against human SNU-16 cells assessed as reduction in cell viability measured for 72 hrs; assay type: functional, cell-based; conditions: SNU-16, 72 h
[2] = molecular target: T1, Fibroblast growth factor receptor 1 (Homo sapiens, UniProt P11362); assay: Inhibition of FGFR1 (unknown origin) using Poly (Glu,Tyr) 4:1 as substrate incubated for 60 mins in presence of ATP by ELISA analysis
Target sequence in this assay (P11362 whole entry): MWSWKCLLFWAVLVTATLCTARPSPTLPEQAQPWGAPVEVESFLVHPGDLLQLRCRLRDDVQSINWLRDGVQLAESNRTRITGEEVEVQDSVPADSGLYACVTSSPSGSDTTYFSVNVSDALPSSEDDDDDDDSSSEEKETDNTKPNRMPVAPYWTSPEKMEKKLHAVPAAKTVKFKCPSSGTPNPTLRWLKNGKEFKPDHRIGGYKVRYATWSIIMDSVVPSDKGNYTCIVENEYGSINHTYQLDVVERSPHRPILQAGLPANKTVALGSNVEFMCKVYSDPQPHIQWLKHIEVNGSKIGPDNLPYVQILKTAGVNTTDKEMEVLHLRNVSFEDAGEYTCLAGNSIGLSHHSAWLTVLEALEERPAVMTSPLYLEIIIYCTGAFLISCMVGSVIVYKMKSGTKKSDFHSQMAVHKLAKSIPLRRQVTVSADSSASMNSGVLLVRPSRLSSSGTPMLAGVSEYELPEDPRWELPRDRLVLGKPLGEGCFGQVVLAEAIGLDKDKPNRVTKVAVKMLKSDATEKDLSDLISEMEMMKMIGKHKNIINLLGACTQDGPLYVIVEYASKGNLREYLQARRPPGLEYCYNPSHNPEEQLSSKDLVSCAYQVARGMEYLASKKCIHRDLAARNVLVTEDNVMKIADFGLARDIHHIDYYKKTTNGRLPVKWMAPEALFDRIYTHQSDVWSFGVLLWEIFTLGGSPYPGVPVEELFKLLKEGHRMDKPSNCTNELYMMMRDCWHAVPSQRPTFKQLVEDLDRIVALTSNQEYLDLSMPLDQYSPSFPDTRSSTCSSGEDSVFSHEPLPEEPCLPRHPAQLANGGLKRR

[3] = molecular target: T1, Fibroblast growth factor receptor 1; conditions: dose 100.0 nM, time 60.0 min
Target sequence in this assay (P11362 22-822 limits assumed): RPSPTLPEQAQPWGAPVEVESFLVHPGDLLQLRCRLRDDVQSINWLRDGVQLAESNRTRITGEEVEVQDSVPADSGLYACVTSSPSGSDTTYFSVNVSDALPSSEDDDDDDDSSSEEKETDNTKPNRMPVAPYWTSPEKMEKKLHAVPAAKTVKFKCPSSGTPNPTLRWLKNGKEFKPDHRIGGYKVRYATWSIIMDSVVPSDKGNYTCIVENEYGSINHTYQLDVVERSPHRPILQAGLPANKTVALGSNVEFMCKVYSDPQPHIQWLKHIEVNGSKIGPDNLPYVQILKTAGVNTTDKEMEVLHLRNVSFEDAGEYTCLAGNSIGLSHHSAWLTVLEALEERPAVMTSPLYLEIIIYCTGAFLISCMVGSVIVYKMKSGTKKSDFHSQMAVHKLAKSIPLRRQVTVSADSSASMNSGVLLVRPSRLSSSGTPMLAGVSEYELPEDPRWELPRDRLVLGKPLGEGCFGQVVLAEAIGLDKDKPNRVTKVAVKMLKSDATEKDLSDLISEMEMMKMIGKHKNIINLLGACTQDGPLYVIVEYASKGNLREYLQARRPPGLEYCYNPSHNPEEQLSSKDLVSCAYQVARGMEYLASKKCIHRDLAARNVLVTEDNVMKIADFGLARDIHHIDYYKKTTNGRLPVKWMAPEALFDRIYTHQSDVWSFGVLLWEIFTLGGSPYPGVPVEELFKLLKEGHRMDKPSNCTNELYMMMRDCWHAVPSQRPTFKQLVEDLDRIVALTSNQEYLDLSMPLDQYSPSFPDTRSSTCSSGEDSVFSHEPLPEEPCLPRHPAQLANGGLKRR

[4] = Stability in rat whole blood assessed as parent compound remaining measured upto 5 hrs by LC-MS/MS analysis; assay type: ADME, tissue-based
[5] = Solubility of compound in PBS at pH 7.4 at 1 to 100 microg/ml by laser nephelometry analysis; assay type: physicochemical; conditions: dose 1-100 µg/ml
[6] = GSH reactivity in PBS buffer assessed as percentage peak area ratio incubated for 24 hrs by LC-MS/MS analysis; assay type: physicochemical
[7] = Stability in rat whole blood assessed as parent compound remaining measured after 2 hrs by LC-MS/MS analysis; assay type: ADME, tissue-based; conditions: read-out: Stability
[8] = molecular target: T1, Fibroblast growth factor receptor 1; conditions: dose 10.0 nM, time 60.0 min
Target sequence in this assay (P11362 22-822 limits assumed): as above

[9] = molecular target: Fibroblast growth factor receptor 2 (Homo sapiens, UniProt P21802); assay: Inhibition of FGFR2 (unknown origin) using Poly (Glu,Tyr) 4:1 as substrate incubated for 60 mins in presence of ATP by ELISA analysis
[10] = molecular target: Fibroblast growth factor receptor 3 (Homo sapiens, UniProt P22607); assay: Inhibition of FGFR3 (unknown origin) using Poly (Glu,Tyr) 4:1 as substrate incubated for 60 mins in presence of ATP by ELISA analysis
[11] = molecular target: Fibroblast growth factor receptor (Homo sapiens) (UniProt P22607+P11362+P22455+P21802); assay: Inhibition of FGFR signalling in human SNU-16 assessed as inhibition of pErk phosphorylation at 0.1 nM incubated for 2 hrs by Western blot analysis; assay type: cell-based
[12] = molecular target: T1, Fibroblast growth factor receptor 1; conditions: dose 1.0 nM, time 60.0 min
Target sequence in this assay (P11362 22-822 limits assumed): as above

[13] = molecular target: Voltage-gated inwardly rectifying potassium channel KCNH2 (Homo sapiens, UniProt Q12809); assay: Inhibition of hERG expressed in CHO cells at -80 mV holding potential by automated patch clamp method; assay type: toxicity, cell-based
[14] = molecular target: Fibroblast growth factor receptor 4 (Homo sapiens, UniProt P22455); assay: Inhibition of FGFR4 (unknown origin) using Poly (Glu,Tyr) 4:1 as substrate incubated for 60 mins in presence of ATP by ELISA analysis
[15] = system: NCI-H1581; assay: Antiproliferative activity against human NCI-H1581 cells expressing FGFR1 assessed as reduction in cell viability measured after 72 hrs; assay type: functional, cell-based; conditions: NCI-H1581, 72 h
[16] = system: NCI-H716; assay: Antiproliferative activity against human NCI-H716 cells expressing FGFR2 assessed as reduction in cell viability measured after 72 hrs; assay type: functional, cell-based; conditions: NCI-H716, 72 h
[17] = Solubility of compound in PBS at pH 7.4; assay type: physicochemical

Fibroblast growth factor receptor 3, sequence (P22607 whole entry): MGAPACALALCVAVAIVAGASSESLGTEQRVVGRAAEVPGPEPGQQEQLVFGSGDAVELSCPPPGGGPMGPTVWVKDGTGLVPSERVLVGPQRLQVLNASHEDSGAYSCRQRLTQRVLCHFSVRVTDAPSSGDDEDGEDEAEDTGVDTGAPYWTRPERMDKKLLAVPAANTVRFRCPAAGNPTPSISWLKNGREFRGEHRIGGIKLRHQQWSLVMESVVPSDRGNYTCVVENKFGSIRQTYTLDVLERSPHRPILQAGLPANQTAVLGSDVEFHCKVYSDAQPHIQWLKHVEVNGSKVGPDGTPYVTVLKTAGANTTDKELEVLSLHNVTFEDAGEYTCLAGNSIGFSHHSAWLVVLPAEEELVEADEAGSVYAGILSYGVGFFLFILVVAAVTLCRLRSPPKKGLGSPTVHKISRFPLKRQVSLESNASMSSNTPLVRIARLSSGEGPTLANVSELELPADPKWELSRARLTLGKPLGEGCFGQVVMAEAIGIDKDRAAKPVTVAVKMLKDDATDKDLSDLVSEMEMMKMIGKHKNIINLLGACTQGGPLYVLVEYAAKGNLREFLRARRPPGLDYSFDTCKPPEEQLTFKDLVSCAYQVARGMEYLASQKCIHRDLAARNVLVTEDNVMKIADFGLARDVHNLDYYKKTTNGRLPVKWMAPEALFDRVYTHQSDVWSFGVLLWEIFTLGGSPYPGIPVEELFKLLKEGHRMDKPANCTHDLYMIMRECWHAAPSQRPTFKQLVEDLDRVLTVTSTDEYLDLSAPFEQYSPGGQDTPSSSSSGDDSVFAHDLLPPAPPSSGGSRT
Fibroblast growth factor receptor (Homo sapiens), sequence (P11362 whole entry, looked up): as the sequence (P11362 whole entry) above
Fibroblast growth factor receptor (Homo sapiens), sequence (P21802 whole entry, looked up): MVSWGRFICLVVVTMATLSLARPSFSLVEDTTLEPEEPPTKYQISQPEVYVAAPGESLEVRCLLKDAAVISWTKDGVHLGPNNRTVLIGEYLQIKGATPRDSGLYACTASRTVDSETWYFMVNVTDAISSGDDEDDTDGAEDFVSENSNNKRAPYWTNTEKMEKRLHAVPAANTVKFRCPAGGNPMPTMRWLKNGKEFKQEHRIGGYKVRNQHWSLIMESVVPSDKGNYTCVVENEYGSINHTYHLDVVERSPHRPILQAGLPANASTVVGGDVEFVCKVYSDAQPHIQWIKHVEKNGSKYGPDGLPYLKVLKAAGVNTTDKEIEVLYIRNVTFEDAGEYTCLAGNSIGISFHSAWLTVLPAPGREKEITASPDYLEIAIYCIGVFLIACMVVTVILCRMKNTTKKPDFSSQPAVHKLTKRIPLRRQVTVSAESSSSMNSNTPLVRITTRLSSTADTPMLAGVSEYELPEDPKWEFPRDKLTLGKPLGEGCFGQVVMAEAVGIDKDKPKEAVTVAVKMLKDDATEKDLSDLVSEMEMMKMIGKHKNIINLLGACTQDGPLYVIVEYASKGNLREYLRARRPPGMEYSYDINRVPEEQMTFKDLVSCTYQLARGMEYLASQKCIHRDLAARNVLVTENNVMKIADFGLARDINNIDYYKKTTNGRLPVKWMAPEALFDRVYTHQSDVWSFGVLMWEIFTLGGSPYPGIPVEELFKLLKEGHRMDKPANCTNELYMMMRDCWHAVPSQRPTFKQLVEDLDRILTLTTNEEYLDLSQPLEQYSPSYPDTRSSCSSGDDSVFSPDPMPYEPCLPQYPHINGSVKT
Fibroblast growth factor receptor (Homo sapiens), sequence (P22455 whole entry, looked up): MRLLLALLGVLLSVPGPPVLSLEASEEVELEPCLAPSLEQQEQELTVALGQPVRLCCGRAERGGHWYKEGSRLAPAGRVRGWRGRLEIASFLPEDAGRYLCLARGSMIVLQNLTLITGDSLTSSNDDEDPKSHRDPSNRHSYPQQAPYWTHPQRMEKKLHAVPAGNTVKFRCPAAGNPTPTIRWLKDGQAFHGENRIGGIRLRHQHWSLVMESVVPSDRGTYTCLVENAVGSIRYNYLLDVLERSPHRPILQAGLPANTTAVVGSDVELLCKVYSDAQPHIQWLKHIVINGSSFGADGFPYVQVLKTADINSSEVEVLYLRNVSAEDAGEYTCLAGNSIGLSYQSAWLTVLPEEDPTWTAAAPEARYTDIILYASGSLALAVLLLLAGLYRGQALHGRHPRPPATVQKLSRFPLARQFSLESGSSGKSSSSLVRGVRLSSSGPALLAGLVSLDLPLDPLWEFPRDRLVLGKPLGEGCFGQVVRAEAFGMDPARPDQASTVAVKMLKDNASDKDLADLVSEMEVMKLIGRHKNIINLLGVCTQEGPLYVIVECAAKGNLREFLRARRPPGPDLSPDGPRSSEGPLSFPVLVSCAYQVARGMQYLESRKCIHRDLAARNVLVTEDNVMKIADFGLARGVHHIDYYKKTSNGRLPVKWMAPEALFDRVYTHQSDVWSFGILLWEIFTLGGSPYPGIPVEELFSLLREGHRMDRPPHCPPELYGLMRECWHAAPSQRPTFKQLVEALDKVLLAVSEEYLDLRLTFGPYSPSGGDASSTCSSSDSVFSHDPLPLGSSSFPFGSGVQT
Fibroblast growth factor receptor (Homo sapiens), sequence (P22607 whole entry, looked up): as the sequence (P22607 whole entry) above
Fibroblast growth factor receptor 4, sequence (P22455 whole entry): as the sequence (P22455 whole entry, looked up) above
Fibroblast growth factor receptor 2, sequence (P21802 whole entry): as the sequence (P21802 whole entry, looked up) above

Row | Compound | IC50 [1] | IC50 [2] | inhibition [3] | solubility kinetic [5] | also measured
1 | C#CC(=O)N1CCCC(n2nc3c(=O)[nH]nc(N)c3c2-c2oc3ccc(C)cc3c2C)C1 (racemic) | 15.8 nM | 3.9 nM |  |  | 
2 | C/C=C(\C)C(=O)N1CCCC(n2nc3c(=O)[nH]nc(N)c3c2-c2oc3ccc(C)cc3c2C)C1 (racemic) |  |  | 37% |  | 
3 | CC/C=C/C(=O)N1CCCC(n2nc3c(=O)[nH]nc(N)c3c2-c2oc3ccc(C)cc3c2C)C1 (racemic) |  | 122 nM |  |  | 
4 | C#CC(=O)N1CCC(n2nc3c(=O)[nH]nc(N)c3c2-c2oc3ccc(C)cc3c2C)CC1 | < 0.3 nM | 0.9 nM |  | 10 µg/mL (≈ 23.2 µM) | Stability [4]: Unstable; Activity [6]: 0%
5 | C=CC(=O)N1CCC(n2nc3c(=O)[nH]nc(N)c3c2-c2oc3ccc(F)cc3c2C)CC1 |  |  | 20% |  | 
6 | C/C=C/C(=O)N1CCCC(n2nc3c(=O)[nH]nc(N)c3c2-c2oc3ccc(C)cc3c2C)C1 (racemic) |  | 67.7 nM |  |  | 
7 | C=CC(=O)N1CCC(n2nc3c(=O)[nH]nc(N)c3c2-c2oc3cccc(OC)c3c2C)CC1 | < 0.3 nM | 111 nM |  |  | 
8 | C=CC(=O)N1CCC(n2nc3c(=O)[nH]nc(N)c3c2-c2oc3cc(OC)ccc3c2C)CC1 | 8.9 nM | 101 nM |  |  | 
9 | C=CC(=O)N1CCC(n2nc3c(=O)[nH]nc(N)c3c2-c2oc3ccc(C)cc3c2C)CC1 | < 0.05 nM | 8 nM | 91.2% | 10 µg/mL (≈ 23.1 µM) | Stability [4]: Stable; remaining at 2 h [7]: > 40%; inhibition [8]: 78.2%; Activity [6]: 84%; IC50 [9]: 4.4 nM; IC50 [10]: 18.7 nM; inhibition [11]: Active; inhibition [12]: 14.2%; IC50 [13]: 1130 nM; IC50 [14]: 45.5 nM
10 | C=CC(=O)N1CCCC(n2nc3c(=O)[nH]nc(N)c3c2-c2oc3cc(OC)ccc3c2C)C1 (racemic) |  |  | 11% |  | 
11 | C=CC(=O)N1CCC(n2nc3c(=O)[nH]nc(N)c3c2-c2oc3ccc(OC)cc3c2C)CC1 |  |  | 44% |  | 
12 | C=CC(=O)N1CCC(n2nc3c(=O)[nH]nc(N)c3c2-c2oc3ccc(C(F)(F)F)cc3c2C)CC1 |  |  | 27% |  | 
13 | C=CC(=O)N1CCC(n2nc3c(=O)[nH]nc(N)c3c2-c2oc3cc(OC)cc(OC)c3c2C)CC1 |  | 84.4 nM | 44% |  | 
14 | C=CC(=O)N1CCC(Cn2nc3c(=O)[nH]nc(N)c3c2-c2oc3ccc(C)cc3c2C)CC1 | 2 nM |  | 61.6% | 10 µg/mL (≈ 22.4 µM) | inhibition [8]: 48.3%; inhibition [12]: 29.5%
15 | CC#CC(=O)N1CCC(n2nc3c(=O)[nH]nc(N)c3c2-c2oc3ccc(C)cc3c2C)CC1 | < 0.3 nM | 6.7 nM |  | 1 µg/mL (≈ 2.25 µM) | Stability [4]: Stable; Activity [6]: 87%
16 | COc1cc(CCc2cc(NC(=O)c3ccc(N4C[C@@H](C)N[C@@H](C)C4)cc3)n[nH]2)cc(OC)c1 [FEXAGRATINIB] | 3.7 nM |  |  |  | IC50 [15]: 15.8 nM; IC50 [16]: 0.6 nM
17 | Cc1ccc2oc(-c3c4c(N)n[nH]c(=O)c4nn3C3CCCN(C(=O)CC#N)C3)c(C)c2c1 (racemic) |  |  | 31% |  | 
18 | C=C(C)C(=O)N1CCCC(n2nc3c(=O)[nH]nc(N)c3c2-c2oc3ccc(C)cc3c2C)C1 (racemic) |  |  | 36% |  | 

Row | Compound | IC50 [1] | IC50 [2] | inhibition [3] | solubility kinetic [5] | also measured
19 | C=CC(=O)N1CCCC(n2nc3c(=O)[nH]nc(N)c3c2-c2oc3ccc(Cl)cc3c2C)C1 (racemic) | < 0.3 nM | 6.4 nM |  |  | 
20 | CC#CC(=O)N1CCCC(n2nc3c(=O)[nH]nc(N)c3c2-c2oc3ccc(C)cc3c2C)C1 (racemic) | 35.2 nM | 27.3 nM |  |  | 
21 | Cc1ccc2oc(-c3c4c(N)n[nH]c(=O)c4nn3C3CCN(C(=O)C#CCO)CC3)c(C)c2c1 | 16.6 nM | 2.2 nM |  |  | 
22 | Cc1ccc2oc(-c3c4c(N)n[nH]c(=O)c4nn3C3CCCN(C(=O)/C=C/CN(C)C)C3)c(C)c2c1 (racemic) |  | 117 nM |  | 10 µg/mL (≈ 20.4 µM) | 
23 | C=CC(=O)N1CCCC(n2nc3c(=O)[nH]nc(N)c3c2-c2oc3cc(OC)cc(OC)c3c2C)C1 (racemic) |  |  | 40% |  | 
24 | C=CC(=O)N[C@H]1CC[C@H](n2nc3c(=O)[nH]nc(N)c3c2-c2oc3ccc(C)cc3c2C)CC1 | 3.1 nM |  | 85.7% |  | inhibition [8]: 47.4%; inhibition [12]: 32.4%
25 | C=CC(=O)N1CCC(n2nc3c(=O)[nH]nc(N)c3c2-c2oc3cc(F)ccc3c2C)CC1 | 1.5 nM | 6.5 nM |  | 10 µg/mL (≈ 22.9 µM) | 
26 | C=CC(=O)Nc1ccc(-n2nc3c(=O)[nH]nc(N)c3c2-c2oc3ccc(C)cc3c2C)cc1 |  |  |  | 1 µg/mL (≈ 2.27 µM) | solubility [17]: 1 µg/mL (≈ 2.27 µM)
27 | C=CC(=O)N1CCCC(n2nc3c(=O)[nH]nc(N)c3c2-c2oc3cccc(OC)c3c2C)C1 (racemic) |  |  | 32% |  | 
28 | C=CC(=O)N1CCC(n2nc3c(=O)[nH]nc(N)c3c2-c2oc3ccc(Cl)cc3c2C)CC1 | 9 nM | 2 nM |  |  | 
29 | C=CC(=O)N1CCC(n2nc3c(=O)[nH]nc(N)c3c2-c2oc3cc(C)ccc3c2C)CC1 | < 0.3 nM | 2.3 nM |  | 10 µg/mL (≈ 23.1 µM) | 
30 | C=C(F)C(=O)N1CCC(n2nc3c(=O)[nH]nc(N)c3c2-c2oc3ccc(C)cc3c2C)CC1 |  |  |  | 10 µg/mL (≈ 22.2 µM) | 
31 | CN(C)C/C=C/C(=O)Nc1cc2c(Nc3ccc(F)c(Cl)c3)ncnc2cc1O[C@H]1CCOC1 [AFATINIB] |  |  |  | 50 µg/mL (≈ 103 µM) | 
32 | CCC#CC(=O)N1CCC(n2nc3c(=O)[nH]nc(N)c3c2-c2oc3ccc(C)cc3c2C)CC1 | < 0.3 nM | 7.71 nM |  | 1 µg/mL (≈ 2.18 µM) | 
33 | Cc1ccc2oc(-c3c4c(N)n[nH]c(=O)c4nn3C3CCCN(C(=O)C#CCO)C3)c(C)c2c1 (racemic) | 82.9 nM | 21.9 nM |  |  | 
34 | C=CC(=O)N1CCC[C@@H](n2nc(-c3ccc(Oc4ccccc4)cc3)c3c(N)ncnc32)C1 [IBRUTINIB] |  |  |  | 10 µg/mL (≈ 22.7 µM) | 
35 | CCC#CC(=O)N1CCCC(n2nc3c(=O)[nH]nc(N)c3c2-c2oc3ccc(C)cc3c2C)C1 (racemic) | 36.4 nM | 25.4 nM |  |  | 

Source: ChEMBL document CHEMBL5247642, “Structural Optimization of Fibroblast Growth Factor Receptor Inhibitors for Treating Solid Tumors” (J Med Chem, 2023)
